# Results as given in patent EP2236511A2, “LIGANDS OF ALPHA-ADRENOCEPTORS AND OF DOPAMINE, HISTAMINE, IMIDAZOLINE AND SEROTONIN RECEPTORS AND THE USE THEREOF” (priority 2007, dated 2009).
# pIC50, pKi: −log10 of the molar value.
# Experiments:
# imidazoline receptor I2 = experiment: Radioligand binding to imidazoline receptor I2 ([3H] Idazoxan, rat brain membranes); settings: 10 µM ligand
# Description: For this purpose membrane species are prepared from rat (Wistar) brain homogenates by homogenization of them in glass homogenizer with the subsequent separation of plasmatic membranes from cell nuclei, mitochondrias and cell wreckages by differential centrifugation. […] After incubation the samples are filtered in vacuo on glass-microfiber filters G/F (Millipor, USA), filters are washed three times with cold solution of medium and radioactivity is measured by scintillation counter MicroBeta 340 (Perkin Elmer, USA). […] Idazoxan is used as positive control.
# The tested compounds' binding to the receptor is determined by their ability to displace the radioligand and expressed in percent of displacement (%I). Values of %I are calculated according to the following equation: %I = (TA-CA)/(TA-NA)*100, [formula] wherein: TA - is the overall radioactivity in the presence of radioligand only, CA - is the radioactivity in the presence of radioligand and tested compound and NA - is a radioactivity in the presence of radioligand and Idazoxan (1 µM).
# human D4.2 receptor = molecular target: T1, human D4.2 receptor (Homo sapiens, UniProt P21917, DEL265-296); experiment: Radioligand binding to dopamine receptor D4.2 ([3H] Spiperone, CHO-K1 membranes); settings: read-out: Dopamine receptors, % inhibition D4.2
# T1 construct: expressed in transfected cells; host or cells: CHO-K1
# T1 sequence (P21917 with tags, fused parts or gaps DEL265-296): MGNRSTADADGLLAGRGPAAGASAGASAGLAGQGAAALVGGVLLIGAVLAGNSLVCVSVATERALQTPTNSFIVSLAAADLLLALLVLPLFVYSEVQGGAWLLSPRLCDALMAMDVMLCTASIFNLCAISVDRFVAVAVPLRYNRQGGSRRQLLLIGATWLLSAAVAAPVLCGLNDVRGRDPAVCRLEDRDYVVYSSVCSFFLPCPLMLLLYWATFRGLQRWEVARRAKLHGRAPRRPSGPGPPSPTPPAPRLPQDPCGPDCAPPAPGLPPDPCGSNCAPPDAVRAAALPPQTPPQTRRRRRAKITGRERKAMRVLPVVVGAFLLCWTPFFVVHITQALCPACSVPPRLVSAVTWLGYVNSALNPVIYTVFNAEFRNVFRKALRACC
# Description: Screening of the disclosed compounds for potential ability to interact with dopamine receptor D4.2 is carried out by method of radioligand binding. […] From the cells transfected in this way membrane species are prepared by homogenization of these cells in glass homogenizer with the subsequent separation of plasmatic membranes from cell nuclei, mitochondrias and cell wreckages by differential centrifugation. […] After incubation samples are filtered in vacuo on glass-microfiber filters G/F (Millipor, USA), filters are washed three times with cold solution of medium and radioactivity is measured by scintillation counter MicroBeta 340 (Perkin Elmer, USA). Nonspecific binding which makes up 10% of the overall binding is determined by incubation of membrane species with radioligand in the presence of 10 µM of Haloperidol.
# Spiperone is used as positive control. Tested compounds' binding to the receptor is determined by their ability to displace radioligand and expressed in percent of displacement (%I). Values of %I are calculated according to the following equation: %I = (TA-CA)/(TA-NA)*100, [formula] wherein: TA - is overall radioactivity in the presence of radioligand only, CA - is radioactivity in the presence of radioligand and tested compound and NA - is radioactivity in the presence of radioligand and Haloperidol (10 µM).
# human D3 receptor = molecular target: T2, human D3 receptor (Homo sapiens, UniProt P35462); experiment: Radioligand binding to dopamine receptor D3 ([3H] Spiperone, CHO membranes)
# T2 construct: expressed in transfected cells; host or cells: CHO
# Text: For this purpose sDNA of human D3 receptor is expressed in CHO cells, as it was described in [Sokoloff P, Giros B, Martres M-P, Bouthenet M-L and Schwartz J-C. Molecular cloning and characterization of novel dopamine receptor (D3) as target for neuroleptics. Nature. […] Molecular cloning and characterization of novel dopamine receptor (D3) as target for neuroleptics. Nature. […] Spiperone is used as positive control.
# human D1 receptor = molecular target: T3, human D1 receptor (Homo sapiens, UniProt P21728); experiment: Radioligand binding to dopamine receptor D1 ([3H] SCH-23390, CHO membranes); settings: read-out: Dopamine receptors, % inhibition D1
# T3 construct: expressed in transfected cells; host or cells: CHO
# Text: For this purpose sDNA of human D1 receptor is expressed in CHO cells, as it was described in [Dearry A, Gingrich JA, Falardeau P, Fremeau RT Jr, Bates MD and Caron MG. Molecular cloning and expression of the gene for a human D1 dopamine receptor. Nature. […] Nature.
# male mice of BALB/c line [1] = experiment: Passive Avoidance of mice in the Shuttle Chamber, memory disturbed by Scopolamine; format: in vivo; settings: Scopolamine 0.3 mg/kg, injected 30 minutes before training; figures 1-3
# Description: Example 14. […] A shuttle chamber (Ugo Basile, Italy) consisted of two sections was used. […] The sections were connected through a hole which could be overlapped by a vertical door. The floor was made of transverse metal bars on which DC current impulses could be fed. Experiments were carried out in aged male mice of BALB/c line weighing 20-24 grams.
# Each group consisted of at least 8 animals. Animal was placed in light section, and latent period of the first entry into dark chamber was registered. Then the vertical door was closed and the animal was punished by 0.6 mA DC current for 3 seconds. After that it was taken back to its homecage. In 22-24 hours the same animal was placed again in light section of the shuttle chamber and latent period of its first entry into dark section, the total time of its stay in light section, and the number of entries into dark section, were registered. Each monitoring lasted for 5 minutes.
# Testing was carried out during the day time in isolated laboratory using white noise at level of about 70 decibel above human hearing threshold.
# Scopolamine causes the disturbance of training (memory loss) that results in […].
# mice [2] = experiment: Tail suspension test; format: in vivo; settings: dose of 0.05 mg/kg during 4 days; fig. 16
# Description: Example 20. Mice behavior in tail suspension test. In the test a mouse was suspended by tail with a sticky tape on the holder over horizontal surface at a height of 40 cm, and during 3 minutes the total time of complete immobility was recorded. Automated computerized detection of motion with videosystem and Any-maze programm were used. After administration of ligand 1.1.2(1-2) (CD-008-0045) in dose of 0.05 mg/kg during 4 days the time of complete immobility of mouse was lowered almost by factor of 2.5 (fig.16), that testifies the cutting of period of depressively-like condition.
# mice [3] = experiment: Mice Training in Morris Water Maze (Scopolamine); format: in vivo; settings: unitary introduction of active ingredient; figures 10-13
# Description: Example 17. Mice Training in Morris Water Maze. A round pool which was filled with water at 20-22°C was used. A round ceramic platform of 14cm height was placed in the pool. Animals's behavior was registered with automated computer videosystem in combination with software package of movement analysis Any-maze (Stoelting Co., US). Before testing mice suitable for training were selected. That was done by placing the platform 1cm above the water level and putting an animal on the platform for 20 seconds. Then the mouse was sunk into the water on the opposite side of the pool, allowed to find the platform and climbed it […] 60 seconds, where it was left for additional 20 seconds. After that the mouse was repeatedly immersed into water on the opposite side of the pool and allowed to look for platform. If it failed in finding the platform within 60 seconds the experimentator helped it to find the platform and climb it. If the mice could not find the platform itself in two consecutive attempts it was excluded from experiment. During the next two days the platform was placed 0.5 centimeter lower the water level. Every day the mice were given four attempts for finding the platform within 60 seconds. The time interval between the attempts was 20 seconds, during which the mice stayed on the platform. Every day before the first attempt mouse was placed on the platform for 20 seconds. The time needed for finding and climbing the platform was registered. The animals were sunk in water in 3 different places on the side of the pool opposite to platform. On each day of two-day testing 35-40 minutes before the beginning of training the mice were injected intraintestinally with physiological solution, Scopolamine or Scopolamine in combination with investigated compound. At least 8 animals were used in each group. On the third day the platform was removed and each animal was placed one time in the pool for a period of 60 seconds. The time each mouse spent in the area where the platform had been located during the previous days was registered. This time interval was regarded as a measure of effectiveness of training fulfilled during the previous two days. The testing was carried out during the day time in isolated laboratory using "white noise" at level of about 70 decibel above the human hearing threshold.
# male mice of BALB/c line [4] = experiment: Mice Behavior in the Elevated Plus Maze; format: in vivo; settings: doses of 0,05 and 0,1 mg/kg
# Text: Example 16. […] The length of each arm of the maze was 30cm, width is 5cm, and height of the walls was 15cm. Two opposite arms were closed from both sides and end faces by transparent walls, the other two arms were lit and opened. A mouse was placed in the center of the maze and for the next five minutes the number of entries into opened and closed arms and the time spent in each type of arms was registered. […] The animals usually avoided opened arms (the preference index is between 0.2 and 0.3). Compounds with tranquilizing action increased this index up to 0.5-0.6 or even more and reduced the number of defecations without changing the overall motion activity of the mice (the total number of their entries to the arms).
# [5] = molecular target: T4, serotonin receptor 5-HT1B (Rattus norvegicus, UniProt P28564); experiment: Radioligand binding to serotonin receptor 5-HT1B ([125I] cyanopindolol, rat brain cortex membranes); settings: read-out: 5-HT1B % inhibition
# T4 construct: membrane species are prepared from rat brains (Wistar) by homogenization of species of rat brain-cortices; from tissue; host or cells: rat (Wistar) brain cortex
# Text: Serotonin is used as positive control.
# [6] = molecular target: T5, recombinant human 5-HT2B receptor (Homo sapiens, UniProt P41595); experiment: Radioligand binding to serotonin receptor 5-HT2B ([3H] Lysergic acid diethylamide, CHO-K1 membranes); settings: read-out: 5-HT2B % inhibition
# T5 construct: expressed in transfected cells; host or cells: CHO-K1
# Description: For this purpose membrane species are prepared from CHO-K1 cells comprising recombinant human 5-HT2B receptor by homogenization of recombinant cells in glass homogenizer with the subsequent separation of plasmatic membranes from cell nuclei, mitochondrias and cell wreckages by differential centrifugation. […] After incubation the samples are filtered in vacuo on glass-microfiber filters G/F (Millipor, USA), filters are washed three times with cold solution of medium and radioactivity is measured by scintillation counter MicroBeta 340 (Perkin Elmer, USA). […] Ketanserin is used as positive control. The tested compounds' binding to the receptor is determined by their ability to displace the radioligand and is expressed in percent of displacement (%I). Values of %I are calculated according to the following equation: %I = (TA-CA)/(TA-NA)*100, [formula] wherein: TA - is the overall radioactivity in the presence of radioligand only, CA - is the radioactivity in the presence of radioligand and tested compound and NA - is the radioactivity in the presence of radioligand and Serotonin (10 µM).
# [7] = molecular target: T6, recombinant human 5-HT2A receptor (Homo sapiens, UniProt P28223); experiment: Radioligand binding to serotonin receptor 5-HT2A ([3H] Ketanserin, CHO-K1 membranes); settings: 10 µM ligand
# T6 construct: expressed in transfected cells; host or cells: CHO-K1
# Text: 9-C. […] J Neurochem. […] Ketanserin is used as positive control.
# [8] = molecular target: T7, recombinant human 5-HT6 receptor (Homo sapiens, UniProt P50406); experiment: Radioligand binding to serotonin receptor 5-HT6 ([3H] Lysergic acid diethylamide, HeLa membranes); settings: read-out: 5-HT6 % inhibition
# T7 construct: expressed in transfected cells; host or cells: HeLa
# Text: Mol Pharmacol. 43:320-327, 1993]. […] Methiothepin is used as positive control.
# recombinant human 5-HT1A = molecular target: T8, recombinant human 5-HT1A (Homo sapiens, UniProt P08908); experiment: Radioligand binding to serotonin receptor 5-HT1A ([3H] 8-OH-DPAT, CHO membranes); settings: read-out: 5-HT1A % inhibition
# T8 construct: expressed in transfected cells; host or cells: CHO
# T8 sequence (P08908 1-422): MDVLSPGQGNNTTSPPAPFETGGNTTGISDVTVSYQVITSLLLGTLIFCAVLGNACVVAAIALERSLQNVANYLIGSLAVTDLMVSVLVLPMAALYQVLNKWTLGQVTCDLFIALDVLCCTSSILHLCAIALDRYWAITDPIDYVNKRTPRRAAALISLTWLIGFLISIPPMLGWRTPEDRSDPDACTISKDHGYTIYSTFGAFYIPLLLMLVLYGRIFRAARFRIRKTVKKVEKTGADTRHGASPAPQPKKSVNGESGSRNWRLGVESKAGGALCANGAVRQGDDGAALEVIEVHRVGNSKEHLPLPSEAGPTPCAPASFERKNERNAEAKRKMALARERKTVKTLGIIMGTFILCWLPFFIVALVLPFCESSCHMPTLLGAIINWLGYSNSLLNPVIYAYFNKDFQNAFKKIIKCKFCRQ
# Text: J Pharmacol Exp Ther. 306(1): 301-309, 2003]. […] Metergoline is used as positive control.
# T2 sequence (P35462 whole entry): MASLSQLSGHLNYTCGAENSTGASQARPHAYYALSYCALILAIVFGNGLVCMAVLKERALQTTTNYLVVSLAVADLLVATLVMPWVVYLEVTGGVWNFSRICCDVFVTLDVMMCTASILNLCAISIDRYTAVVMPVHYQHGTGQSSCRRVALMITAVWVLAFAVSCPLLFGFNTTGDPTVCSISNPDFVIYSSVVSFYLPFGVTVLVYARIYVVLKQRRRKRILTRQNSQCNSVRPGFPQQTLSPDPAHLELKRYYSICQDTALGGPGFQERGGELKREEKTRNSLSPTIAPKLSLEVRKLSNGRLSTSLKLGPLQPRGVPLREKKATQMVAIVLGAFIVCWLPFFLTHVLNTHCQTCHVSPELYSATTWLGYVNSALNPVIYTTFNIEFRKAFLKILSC
# T6 sequence (P28223 whole entry): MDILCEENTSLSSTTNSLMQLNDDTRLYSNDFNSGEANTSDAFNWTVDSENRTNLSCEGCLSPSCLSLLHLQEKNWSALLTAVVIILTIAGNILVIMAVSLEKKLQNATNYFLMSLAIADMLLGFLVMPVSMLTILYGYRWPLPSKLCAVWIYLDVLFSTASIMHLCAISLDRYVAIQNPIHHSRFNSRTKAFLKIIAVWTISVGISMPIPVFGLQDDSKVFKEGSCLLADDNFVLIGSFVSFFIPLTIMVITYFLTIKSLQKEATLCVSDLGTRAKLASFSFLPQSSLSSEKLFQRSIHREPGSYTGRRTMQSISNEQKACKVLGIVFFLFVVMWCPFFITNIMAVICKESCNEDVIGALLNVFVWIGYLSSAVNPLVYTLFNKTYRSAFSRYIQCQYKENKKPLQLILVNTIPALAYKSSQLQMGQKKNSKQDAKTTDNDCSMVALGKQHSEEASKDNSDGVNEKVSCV
# T4 sequence (P28564 whole entry): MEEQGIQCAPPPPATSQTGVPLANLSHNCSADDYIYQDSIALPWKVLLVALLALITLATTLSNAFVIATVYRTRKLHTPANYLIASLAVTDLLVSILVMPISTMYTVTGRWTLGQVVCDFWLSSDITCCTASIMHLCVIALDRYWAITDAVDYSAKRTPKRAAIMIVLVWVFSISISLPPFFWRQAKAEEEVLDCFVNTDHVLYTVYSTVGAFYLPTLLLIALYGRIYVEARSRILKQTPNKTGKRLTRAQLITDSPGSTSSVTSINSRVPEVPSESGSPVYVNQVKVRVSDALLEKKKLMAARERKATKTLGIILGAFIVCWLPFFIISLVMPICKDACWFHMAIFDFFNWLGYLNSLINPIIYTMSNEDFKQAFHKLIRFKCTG
# T3 sequence (P21728 whole entry): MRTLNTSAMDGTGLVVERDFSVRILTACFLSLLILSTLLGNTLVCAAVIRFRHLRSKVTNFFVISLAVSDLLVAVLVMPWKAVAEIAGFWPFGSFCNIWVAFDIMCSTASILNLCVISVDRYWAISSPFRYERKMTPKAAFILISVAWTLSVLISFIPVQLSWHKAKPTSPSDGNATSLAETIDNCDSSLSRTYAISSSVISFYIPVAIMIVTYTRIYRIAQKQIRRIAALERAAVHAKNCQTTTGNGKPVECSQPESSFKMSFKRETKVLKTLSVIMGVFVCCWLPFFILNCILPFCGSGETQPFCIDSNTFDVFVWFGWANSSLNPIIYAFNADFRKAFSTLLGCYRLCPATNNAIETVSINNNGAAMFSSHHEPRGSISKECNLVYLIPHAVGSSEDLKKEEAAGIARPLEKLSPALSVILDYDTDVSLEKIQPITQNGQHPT
# T5 sequence (P41595 whole entry): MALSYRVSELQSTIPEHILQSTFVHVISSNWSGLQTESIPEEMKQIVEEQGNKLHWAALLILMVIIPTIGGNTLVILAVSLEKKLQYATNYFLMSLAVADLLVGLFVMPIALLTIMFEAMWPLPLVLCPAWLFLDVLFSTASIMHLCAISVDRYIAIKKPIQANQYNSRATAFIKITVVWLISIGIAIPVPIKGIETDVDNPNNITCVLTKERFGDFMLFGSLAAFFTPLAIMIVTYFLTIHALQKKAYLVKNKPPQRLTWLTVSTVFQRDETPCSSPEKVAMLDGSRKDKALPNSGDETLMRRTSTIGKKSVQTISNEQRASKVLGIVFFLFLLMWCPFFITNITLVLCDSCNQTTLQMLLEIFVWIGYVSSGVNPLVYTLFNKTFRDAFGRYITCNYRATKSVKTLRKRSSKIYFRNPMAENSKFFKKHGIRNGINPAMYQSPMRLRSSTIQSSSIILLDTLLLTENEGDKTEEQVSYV
# T7 sequence (P50406 whole entry): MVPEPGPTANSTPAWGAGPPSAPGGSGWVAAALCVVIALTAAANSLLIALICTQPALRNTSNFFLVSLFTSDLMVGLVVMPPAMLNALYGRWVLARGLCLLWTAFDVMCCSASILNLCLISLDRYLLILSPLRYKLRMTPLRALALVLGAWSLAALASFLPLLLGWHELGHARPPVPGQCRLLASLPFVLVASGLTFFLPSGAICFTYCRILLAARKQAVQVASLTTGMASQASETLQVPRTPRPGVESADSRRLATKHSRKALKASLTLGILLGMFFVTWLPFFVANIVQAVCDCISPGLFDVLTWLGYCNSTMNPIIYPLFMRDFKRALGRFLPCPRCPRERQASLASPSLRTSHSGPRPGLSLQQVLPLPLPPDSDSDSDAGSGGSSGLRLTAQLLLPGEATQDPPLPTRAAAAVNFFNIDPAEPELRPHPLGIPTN
smiles,measurement,setting,value
Cc1ccc2c(c1)[C@H]1CN(C)CCC[C@@H]1N2CCc1ccc(C)nc1 (relative stereo) [1.6.2(11)],% inhibition,imidazoline receptor I2,83%
same,inhibition at 10 µM,human D4.2 receptor,6%
Cc1ccc2c(c1)c1c(n2CCc2ccccc2)CCN(C)C1 [1.1.2(1-2) ·2HCl],inhibition at 10 µM,human D4.2 receptor,103%
same,pIC50,human D3 receptor,6.59
same,pKi,human D3 receptor; Receptor D3,6.06
same,nH,human D3 receptor; Receptor D3,0.797
same,inhibition at 10 µM,"human D3 receptor; read-out: Dopamine receptors, % inhibition D3",99%
same,inhibition at 10 µM,human D1 receptor,89%
"Cc1ccc2c(c1)c1c(n2CCc2ccccc2)CCN(C)C1 [1.1.2(1-2), 2,8-dimethyl-5-phenethyl-1,2,3,4-tetrahydro-1H-pyrido[4,3-b]indole]",enhancement of memory disturbed by Scopolamine,male mice of BALB/c line [1],improve memory
same,"time of complete immobility, lowered by factor",mice [2],~2.5
same,memory disorders caused by Scopolamine (time spent in area of the platform),mice [3],decreasing memory disorders
Cc1ccc2c(c1)c1c(n2CCc2ccc(C)nc2)CCN(C)C1.Cl.Cl [1.1.2(4-2)],enhancement of memory disturbed by Scopolamine,male mice of BALB/c line [1],improve memory
same,Anxiolytic (tranquilizing) action,male mice of BALB/c line [4],exhibit analogous action
same,memory disorders caused by Scopolamine (time spent in area of the platform),mice [3],decreasing memory disorders
Cc1ccc2c(c1)c1c(n2CCc2ccncc2)CCN(C)C1 [1.1.2(5-2)·2HCl],enhancement of memory disturbed by Scopolamine,male mice of BALB/c line [1],improve memory
same,inhibition at 10 µM,[5],14%
same,inhibition at 10 µM,[6],80%
same,inhibition at 10 µM,[7],88%
same,inhibition at 10 µM,[8],91%
same,inhibition at 10 µM,recombinant human 5-HT1A,17%
Cc1ccc2c(c1)c1c(n2CCc2ccncc2)CCCN(C)C1 [1.2.2(5-3)·2HCl],memory disorders caused by Scopolamine (time spent in area of the platform),mice [3],decreasing memory disorders
